{"source": "patent US6590123B2", "about": "“Aminobenzoic acid derivatives having anti-tumorigenic activity, methods of making and using the same” (Mount Sinai School of Medicine of New York University, priority 1998, dated 2003)", "key": {"[1]": {"test_system": "NIH 3T3 fibroblast cell line", "experiment": "Block of mitosis, morphology by microscopy", "format": "cell-based, mouse", "set-up": "key to Block of Mitosis: +Block of mitosis was observed; −no mitotic blocking", "experimental": "(§1) All cell lines, with the exception of human SP cells, a biphenotypic leukemic cell line (reference 10 & 11), were obtained from the American Tissue Culture Collection (Rockville, Md.) and were cultured under conditions recommended by the vendor. EL4 murine leukemia lymphoma (as suspension) and B16 mouse melanoma (as monolayer) cell lines were cultivated in RPMI-1640 medium supplemented with 10% fetal bovine serum (FBS), penicillin (250 μ/ml) and streptomycin (250 μml); MOT, a non-tumor proliferative myocardial cell line from rat and NIH 3T3, a non-malignant and proliferative fibroblast cell line from mouse were both cultured as monolayers in Dulbecco's Modified Eagle's Medium with 10% heat inactivated calf serum. CEM, a human acute T-cell leukemic cell line, was cultured as a suspension in Iscove's Dulbecco's Medium with 10% heat inactivated fetal calf serum and antibiotics. PC-3 cells, a human prostate cancer line, was cultured as monolayers in RPMI-1640 with 10% FBS. SP cells were cultured in Minimum Eagle's Medium plus 10% FBS. Human peripheral blood lymphocytes (PBL) were isolated from whole blood of healthy individuals by Ficoll-Hypaque gradient method. Isolated PBL were maintained in RPMI-1640 in the presence of 10% homologous plasma at 37° C. All cells were incubated at 37° C. in 5% C02. Cells in exponential growth were used. […]"}, "B16 mouse melanoma": {"test_system": "B16 mouse melanoma", "experiment": "Cytotoxicity, ID50 and ID90 (monolayer culture)", "format": "cell-based", "settings": "B16, Murine melanoma, 48 hr", "experimental": "as §1, with “method.” for “method. Isolated PBL were maintained in RPMI-1640 in the presence of 10% homologous plasma at 37° C. All cells were incubated at 37° C. in 5% C02. Cells in exponential growth were used.”\n(§2) The ID50 and ID90 was determined in duplicate in every set of experiments, and each experiment was repeated 3 times under identical conditions. […]"}, "PC-3 cells": {"test_system": "PC-3 cells", "experiment": "Cytotoxicity, ID50 and ID90 (monolayer culture)", "format": "cell-based", "settings": "PC-3, Human Prostate Cancer, 48 hr", "experimental": "as §1, with “method.” for “method. Isolated PBL were maintained in RPMI-1640 in the presence of 10% homologous plasma at 37° C. All cells were incubated at 37° C. in 5% C02. Cells in exponential growth were used.”\nas §2"}, "MOT myocardial cell line": {"test_system": "MOT myocardial cell line", "experiment": "Block of mitosis, morphology by microscopy", "format": "cell-based, rat", "set-up": "key to Block of Mitosis: +Block of mitosis was observed; −no mitotic blocking", "experimental": "as §1"}, "[2]": {"test_system": "mitotic spindles (β-tubulin) in CEM cells", "experiment": "Immunofluorescent detection of mitotic spindles", "format": "cell-based, human", "settings": "for Antimicrotubule: CEM cells, 0.025 μg/ml, immunofluorescent staining", "experimental": "[…] After incubation, cells were washed twice in PBS. Cell pellets were resuspended in drug-free medium and incubated for 48 hr at 37° C. Cell viability, morphology, mitotic spindles, cell cycle distribution and apoptosis were determined 24 hr and 48 hr post pulse exposure.\nCEM cells incubated in the absence or presence of 3-BAABU were collected and centrifuged in a Cytospin at 700 g for 5 min. The slides were air dried and fixed with methanol for 20 min at −20° C. The slides were incubated in PBS containing. 1% BSA at 37° C. for 30 min. After washing with PBS for 3 min, cells on the slides were covered with 30 μl anti-human β-tubulin monoclonal antibody (4 μg/ml) (Accurate Antibody, Westbury, N.Y.) and placed in a humid chamber at room temperature for 60 min. The slides were washed three times for 3 min each in PBS followed by staining with 10 μl FITC labeled goat anti-mouse antibody (Coulter, Hialeah, Fla.) in a humid chamber at room temperature for 60 min. After washing in, PBS, the immunofluorescent stained cells were visualized under a fluorescence microscope (Model MC 63, Zeiss, Germany)."}, "[3]": {"test_system": "Human peripheral blood lymphocytes (PBL)", "experiment": "Block of mitosis, morphology by microscopy", "format": "cell-based", "set-up": "key to Block of Mitosis: +Block of mitosis was observed; −no mitotic blocking", "experimental": "All cell lines, with the exception of human SP cells, a biphenotypic leukemic cell line (reference 10 & 11), were obtained from the American Tissue Culture Collection (Rockville, Md.) and were cultured under conditions recommended by the vendor. EL4 murine leukemia lymphoma (as suspension) and B16 mouse melanoma (as monolayer) cell lines were cultivated in RPMI-1640 medium supplemented with 10% fetal bovine serum (FBS), penicillin (250 μ/ml) and streptomycin (250 μml); MOT, a non-tumor proliferative myocardial cell line from rat and NIH 3T3, a non-malignant and proliferative fibroblast cell line from mouse were both cultured as monolayers in Dulbecco's Modified Eagle's Medium with 10% heat inactivated calf serum. CEM, a human acute T-cell leukemic cell line, was cultured as a suspension in Iscove's Dulbecco's Medium with 10% heat inactivated fetal calf serum and antibiotics. PC-3 cells, a human prostate cancer line, was cultured as monolayers in RPMI-1640 with 10% FBS. SP cells were cultured in Minimum Eagle's Medium plus 10% FBS. Human peripheral blood lymphocytes (PBL) were isolated from whole blood of healthy individuals by Ficoll-Hypaque gradient method. Isolated PBL were maintained in RPMI-1640 in the presence of 10% homologous plasma at 37° C. All cells were incubated at 37° C. in 5% C02. Cells in exponential growth were used.\nCell samples on slides were prepared by a Cytospin centrifuge (Shandon Southern Products Ltd, England) at 700 g for 5 min. The slides were air dried, fixed in methanol and stained with Giemsa (Harleco, N.J.) at room temperature for 15 min. Alterations of nuclei, membranes and morphological features were observed by light microscopy. Cells in mitotic phase were recognized by the appearance of their chromosomes dispersed in the cytoplasm, and by the disappearance of nuclear membrane. Apoptotic-cells were identified using previously defined criteria, i.e., shrinkage in cell size, chromatin condensation and fragmentation of the nucleus into discrete masses (references 2 & 3). Necrotic cells were differentiated from apoptotic cells by observing swollen cytoplasm and the disappearance of cell membrane prior to the destruction of the nucleus."}}, "data": [{"smiles": "NC(=O)NC(=O)c1cccc(NC(=O)CBr)c1", "note": "[Compound 8, 3-Bromoacetoamido, benzoylurea]", "values": [{"measurement": "Block of Mitosis", "setting": "[1]; 3T3, Murine fibroblast (non-tumor), 37° C. for 48 hr", "value": "−"}, {"measurement": "morphologic effect", "setting": "[1]; murine fibroblast cells, 1.0 μg/ml, 24 hr at 37° C.", "value": "no effect"}, {"measurement": "ID90", "setting": "B16 mouse melanoma", "value": "0.76 ± 0.09", "unit": "µg/mL"}, {"measurement": "ID90", "setting": "PC-3 cells", "value": "0.95 ± 0.17", "unit": "µg/mL"}, {"measurement": "Block of Mitosis", "setting": "MOT myocardial cell line; MOT, Rat myocardiac cells (non-tumor), 37° C. for 48 hr", "value": "−"}, {"measurement": "morphologic effect", "setting": "MOT myocardial cell line; rat myocardial cells, 1.0 μg/ml, 24 hr at 37° C.", "value": "no effect"}, {"measurement": "Antimicrotubule", "setting": "[2]; Continuous Exposure (24 hr; 48 hr in footnote)", "value": "++++ (++++: >75% cells were affected)"}, {"measurement": "Antimicrotubule", "setting": "[2]; Pulse Exposure (1 hr)", "value": "++++ (++++: >75% cells were affected)"}, {"measurement": "formation of mitotic spindles, immunofluorescent staining for β-tubulin", "setting": "[2]; mitotic CEM cells arrested by the compound", "value": "none of them showed positive staining for mitotic spindles or astral microtubules"}, {"measurement": "Block of Mitosis", "setting": "[3]; Normal human PBL (non-tumor), 37° C. for 48 hr", "value": "−"}, {"measurement": "morphologic effect", "setting": "[3]; normal human lymphocytes, 2 μg/ml, 24 hr at 37° C.", "value": "no effect"}]}]}
